The values that follow come from patent US6723753B2, “Substituted n-benzyl-n-phenyl aminoalcohol compounds useful for inhibiting cholesteryl ester transfer protein activity” (Pharmacia Corporation, priority 2002, dated 2004).

The target of the experiment is T1, CETP (Homo sapiens, UniProt P11597).
T1 sequence (P11597 18-493): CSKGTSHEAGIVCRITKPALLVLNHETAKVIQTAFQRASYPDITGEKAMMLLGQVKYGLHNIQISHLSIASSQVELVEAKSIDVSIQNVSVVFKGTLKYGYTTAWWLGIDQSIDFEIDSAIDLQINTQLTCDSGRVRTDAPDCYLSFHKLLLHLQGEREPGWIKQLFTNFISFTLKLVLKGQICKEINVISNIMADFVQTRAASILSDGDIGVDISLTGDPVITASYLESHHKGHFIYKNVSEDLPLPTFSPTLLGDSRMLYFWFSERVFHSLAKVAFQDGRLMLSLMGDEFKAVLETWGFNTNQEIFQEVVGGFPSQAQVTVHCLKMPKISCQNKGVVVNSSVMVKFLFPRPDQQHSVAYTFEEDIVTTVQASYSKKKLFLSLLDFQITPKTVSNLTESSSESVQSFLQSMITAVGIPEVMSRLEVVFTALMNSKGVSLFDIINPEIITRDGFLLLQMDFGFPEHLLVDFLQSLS
In words: Assay of CETP Inhibition using Purified Components (Reconstituted Buffer Assay). In kind it is biochemical. Particulars: transfer of [3H]CE from HDL to LDL. Also noted: made in house; host or cells: CHO cells (serum-free conditioned medium). As for the experimental part: Assay of CETP Inhibition using Purified Components (Reconstituted Buffer Assay)
The ability of compounds to inhibit CETP activity was assessed using an in vitro assay that measured the rate of transfer of radiolabeled cholesteryl ester ([^3H]CE) from HDL donor particles to LDL acceptor particles. Details of the assay are provided by Glenn, K. C. et al. (Glenn and Melton, “Quantification of Cholesteryl Ester Transfer Protein (CETP): A) CETP Activity and B) Immunochemical Assay of CETP Protein,” Meth. Enzymol., 263, 339-351 (1996)). Human recombinant CETP can be obtained from the serum-free conditioned medium of CHO cells transfected with a cDNA for CETP and purified as described by Wang, S. et al. (J. Biol. Chem. 267, 17487-17490 (1992)). To measure CETP activity, [^3H]CE-labeled-HDL, LDL, CETP and assay buffer (50 mM tris(hydroxymethyl)aminomethane, pH 7.4; 150 mM sodium chloride; 2 mM ethylenediamine-tetraacetic acid (EDTA); 1% bovine serum albumin) were incubated in a final volume of 200 μL, for 2 hours at 37° C. in 96 well plates. […] The inhibitors were then diluted 1:1 with CETP in assay buffer, and then 25 μL of that solution was mixed with 175 μL of lipoprotein pool for assay. Following incubation, LDL was differentially precipitated by the addition of 50 μL of 1% (w/v) dextran sulfate/0.5 M magnesium chloride, mixed by vortex, and incubated at room temperature for 10 minutes. A potion of the solution (200 μL) was transferred to a filter plate (Millipore). After filtration, the radioactivity present in the precipitated LDL was measured by liquid scintillation counting.
This value was defined as the IC50.
Examples of IC50 values determined by these methods are specified in Table 9.

The mark [1] stands for this setting: Inhibition of CETP activity in reconstituted buffer assay, read-out: IC50.
[2] abbreviates: IC50, Inhibition of CETP activity in reconstituted buffer assay.

Where two headings read alike, the source gives them in different places.

For `OC(CN(Cc1cccc(OC(F)(F)C(F)F)c1)c1cccc(Oc2ccc(C(F)(F)F)cn2)c1)C(F)(F)F` (stereo not drawn) [Example 445], the IC50 (usually the midpoint of a concentration-inhibition curve) under setting [1] was found to be 2.8 µM.

For the compound `Cc1cccc(COc2cccc(N(Cc3cccc(OC(F)(F)C(F)F)c3)CC(O)C(F)(F)F)c2)c1F` (stereo not drawn) [Example 425], under setting [1], the IC50 was 0.34 µM.

With `OC(CN(Cc1cccc(Cl)c1)Cc1cccc(OC(F)(F)F)c1)C(F)(F)F` (stereo not drawn) [compound 193], under setting [1], the IC50 was found to be 10 µM.

As to `Cc1cccc(CN(CC(O)C(F)(F)F)c2cccc(Cl)c2)c1` (stereo not drawn) [Example 9], under setting [1], the IC50 was greater than 100 µM.

With `OC(CN(Cc1ccccc1)c1cccc(Cl)c1)C(F)(F)F` (stereo not drawn) [Example 16], under setting [1], the IC50 was 60 µM.

For `O=C(Nc1ccc(F)cc1)Nc1cccc(N(Cc2cccc(OC(F)(F)C(F)F)c2)CC(O)C(F)(F)F)c1` (stereo not drawn) [Example 545, N-(4-fluorophenyl)-N′-[3-[[[3-(1,1,2,2-tetrafluoroethoxy)phenyl]methyl]-(3,3,3-trifluoro-2-hydroxypropyl)amino]phenyl]urea], under setting [1], the IC50 was greater than 50 µM.

Turning to `OC(CN(Cc1ccc(F)cc1F)c1cccc(OC(F)(F)F)c1)C(F)(F)F` (stereo not drawn) [Example 329], the IC50 under setting [1] is greater than 100 µM.

In the case of `OC(CN(Cc1cccc(OC(F)(F)C(F)F)c1)c1cccc(Sc2ccncc2)c1)C(F)(F)F` (stereo not drawn) [Example 474], the IC50 under setting [1] amounted to 6 µM.

Take `NC(=O)COc1cccc(N(Cc2cccc(OC(F)(F)C(F)F)c2)CC(O)C(F)(F)F)c1` (stereo not drawn) [Example 500]: the half-maximal inhibitory concentration (IC50) under setting [1] was greater than 50 µM.

In the case of `OC(CN(Cc1cccc(OC(F)(F)C(F)F)c1)c1cccc(Oc2cc(F)cc(F)c2F)c1)C(F)(F)F` (stereo not drawn) [Example 225], under setting [1], the 50% inhibitory concentration (IC50) came to 0.37 µM.

Turning to `OC(CN(Cc1ccc(OC(F)(F)F)cc1)c1cccc(C(F)(F)F)c1)C(F)(F)F` (stereo not drawn) [Example 54], the IC50 under setting [1] is 15 µM.

As to `CC(C)(CO)COc1cccc(N(Cc2cccc(OC(F)(F)C(F)F)c2)CC(O)C(F)(F)F)c1` (stereo not drawn) [Example 512], the half-inhibitory concentration (IC50) under setting [1] is 6.1 µM.

In the case of `OC(CN(Cc1cccc(OC(F)(F)C(F)F)c1)c1cccc(OCc2csc3ccc(Cl)cc23)c1)C(F)(F)F` (stereo not drawn) [Example 431], the IC50 under setting [1] came to 12 µM.

Regarding `COc1cccc(Cc2cccc(N(Cc3cccc(OC(F)(F)C(F)F)c3)CC(O)C(F)(F)F)c2)c1` (stereo not drawn) [Example 527], the IC50 under setting [1] was determined as 0.58 µM.

`OC(CN(Cc1cc(Cl)nc(Cl)c1)c1cccc(OC(F)(F)F)c1)C(F)(F)F` (stereo not drawn) [Example 366]: the concentration for half-maximal inhibition (IC50) under setting [1] is 80 µM.

In the case of `CN(C(=O)c1cccc(N(Cc2cccc(OC(F)(F)C(F)F)c2)CC(O)C(F)(F)F)c1)c1ccccc1` (stereo not drawn) [Example 468], the 50% inhibitory concentration (IC50) under setting [1] is 35 µM.

Turning to `O=C(NC1CCCCC1)c1cccc(N(Cc2cccc(OC(F)(F)C(F)F)c2)CC(O)C(F)(F)F)c1` (stereo not drawn) [Example 459], the IC50 under setting [1] is 3.3 µM.

In the case of `O=C(Nc1cccc(N(Cc2cccc(OC(F)(F)C(F)F)c2)CC(O)C(F)(F)F)c1)Nc1cccc(C(F)(F)F)c1` (stereo not drawn) [Example 548], the IC50 under setting [1] is greater than 50 µM.

On to `Cc1cccc(CN(CC(O)C(F)(F)F)c2cccc(C)c2)c1` (stereo not drawn) [Example 11], for which the half-inhibitory concentration (IC50) under setting [1] is greater than 100 µM.

Turning to `O=C(Nc1cccc(N(Cc2cccc(OC(F)(F)C(F)F)c2)CC(O)C(F)(F)F)c1)c1cccnc1` (stereo not drawn) [Example 539], under setting [1], the concentration for half-maximal inhibition (IC50) is greater than 50 µM.

Turning to `OC(CN(Cc1cccc(OC(F)(F)C(F)F)c1)c1cccc(Cc2cc(Cl)cc(Cl)c2)c1)C(F)(F)F` (stereo not drawn) [Example 518], under setting [1], the concentration for half-maximal inhibition (IC50) came out at 0.79 µM.

On to `OC(CN(Cc1ccc(OC(F)F)cc1)c1cccc(OC(F)(F)F)c1)C(F)(F)F` (stereo not drawn) [Example 323], for which, under setting [1], the IC50 was determined as 9 µM.

Take `CCN(CC)c1ccc(CN(CC(O)C(F)(F)F)c2cccc(Oc3ccccc3)c2)cc1` (stereo not drawn) [Example 631, 3-[(3-phenoxyphenyl)[[4-(N,N-diethylamino)phenyl]methyl]amino]-1,1,1-trifluoro-2-propanol]: under setting [1], the IC50 was greater than 100 µM.

`CSc1ccccc1NC(=O)N(CC(O)C(F)(F)F)c1cccc(OC(F)(F)F)c1` (stereo not drawn) [Example 368]: under setting [1], the IC50 is greater than 100 µM.

Consider `OC(CN(Cc1cccc(OC(F)(F)C(F)F)c1)c1cccc(-c2cccs2)c1)C(F)(F)F` (stereo not drawn) [Example 452], for which the IC50 under setting [1] was 2.7 µM.

Regarding `CC(c1cccc([N+](=O)[O-])c1)N(CC(O)C(F)(F)F)c1cccc(Oc2ccccc2)c1` (stereo not drawn) [Example 205], the IC50 under setting [1] is greater than 100 µM.

As for `OC(CN(Cc1cccc(OC(F)(F)C(F)F)c1)c1cccc(OCc2cc(F)cc(F)c2F)c1)C(F)(F)F` (stereo not drawn) [Example 408], the IC50 under setting [1] stood at 0.75 µM.

For the compound `Cc1cccc(CN(CC(O)C(F)(F)F)c2cccc(F)c2F)c1` (stereo not drawn) [Example 678], the IC50 under setting [1] was greater than 100 µM.

Take `Cc1cccc(CN(Cc2ccccc2F)CC(O)C(F)(F)F)c1` (stereo not drawn) [compound 183]: under setting [1], the 50% inhibitory concentration (IC50) was greater than 100 µM.

As to `COc1ccc(Sc2cccc(N(Cc3cccc(OC(F)(F)C(F)F)c3)CC(O)C(F)(F)F)c2)cc1` (stereo not drawn) [compound 291], under setting [1], the IC50 came to 8.4 µM.

For the compound `OC(CN(Cc1cccc(Oc2ccccc2)c1)c1ccccc1-c1ccccc1)C(F)(F)F` (stereo not drawn) [Example 85], under setting [1], the concentration for half-maximal inhibition (IC50) is 80 µM.

`OC(CN(Cc1ccc(Cl)cc1)Cc1ccc(C(F)(F)F)cc1)C(F)(F)F` (stereo not drawn) [compound 173]: the half-inhibitory concentration (IC50) under setting [1] worked out at 20 µM.

With `Cc1ccc(N(CCC#N)c2cccc(N(Cc3cccc(OC(F)(F)C(F)F)c3)CC(O)C(F)(F)F)c2)cc1` (stereo not drawn) [Example 314], the 50% inhibitory concentration (IC50) under setting [1] was 14 µM.

On to `Cc1cc(Cc2cccc(N(Cc3cccc(OC(F)(F)C(F)F)c3)CC(O)C(F)(F)F)c2)ccc1F` (stereo not drawn) [Example 521], for which the half-inhibitory concentration (IC50) under setting [1] is 0.43 µM.

Consider `O=[N+]([O-])c1cccc(COc2cccc(N(Cc3cccc(OC(F)(F)C(F)F)c3)CC(O)C(F)(F)F)c2)c1` (stereo not drawn) [Example 382], for which the IC50 under setting [1] is 2.3 µM.

Regarding `Cc1ccc(N(Cc2ccccc2)CC(O)C(F)(F)F)cc1` (stereo not drawn) [Example 14], the IC50 under setting [1] was determined as 60 µM.

Turning to `OC(CN(Cc1cccc(-c2ncccc2C(F)(F)F)c1)c1cccc(Oc2ccccc2)c1)C(F)(F)F` (stereo not drawn) [Example 588, 3-[(3-phenoxyphenyl)[[3-[(3-trifluoromethyl)-2-pyridinyl]phenyl]methyl]amino]-1,1,1-trifluoro-2-propanol], the half-maximal inhibitory concentration (IC50) under setting [2] is 4.1 µM.

As to `CC(C)(C)NC(=O)c1cccc(N(Cc2cccc(OC(F)(F)C(F)F)c2)CC(O)C(F)(F)F)c1` (stereo not drawn) [Example 460], the half-maximal inhibitory concentration (IC50) under setting [1] worked out at 3 µM.

On to `OC(CN(Cc1cccc(-c2ccncc2)c1)c1cccc(Oc2ccccc2)c1)C(F)(F)F` (stereo not drawn) [Example 591], for which inhibition under setting [2] was half-maximal at 6.2 µM (IC50).

For the compound `CCN(C)C(=O)c1cccc(CN(CC(O)C(F)(F)F)c2cccc(Oc3ccccc3)c2)c1` (stereo not drawn) [compound 613], under setting [1], the IC50 was found to be 10 µM.

`OC(CN(Cc1cccc(OC(F)(F)C(F)F)c1)c1cccc(Oc2ccc(F)c(F)c2F)c1)C(F)(F)F` (stereo not drawn) [Example 237]: the IC50 under setting [1] was determined as 0.35 µM.

Turning to `O=C(c1cccc(N(Cc2cccc(OC(F)(F)C(F)F)c2)CC(O)C(F)(F)F)c1)C1CCCC1` (stereo not drawn) [Example 581], the IC50 under setting [1] is 0.87 µM.

Regarding `CCOC(=O)C(C#N)C(=O)c1ccc(Nc2cccc(N(Cc3cccc(OC(F)(F)C(F)F)c3)CC(O)C(F)(F)F)c2)cc1` (stereo not drawn) [Example 301], under setting [1], the IC50 was 11 µM.

Turning to `O=C(c1cccc(N(Cc2cccc(OC(F)(F)C(F)F)c2)CC(O)C(F)(F)F)c1)N1CCCC1` (stereo not drawn) [Example 472], the IC50 under setting [1] stood at 11 µM.

As to `OC(CN(Cc1cccc(Oc2ccccc2)c1)c1ccc(Oc2ccc(Cl)cc2)cc1)C(F)(F)F` (stereo not drawn) [Example 165], the half-inhibitory concentration (IC50) under setting [1] was found to be 90 µM.

With `CC(C)(O)c1cccc(CN(CC(O)C(F)(F)F)c2cccc(Oc3ccccc3)c2)c1` (stereo not drawn) [Example 617, α, α-dimethyl-3-[[(3-phenoxyphenyl)(3,3,3-trifluoro-2-hydroxypropyl)amino]methyl]benzenemethanol], the IC50 under setting [1] came out at 7.9 µM.

With `COc1ccc(N(Cc2ccc(C)cc2)CC(O)C(F)(F)F)cc1` (stereo not drawn) [Example 6], the half-inhibitory concentration (IC50) under setting [1] is greater than 100 µM.

As to `OC(CN(Cc1ccc2ccccc2n1)c1cccc(OC(F)(F)F)c1)C(F)(F)F` (stereo not drawn) [Example 362], the half-inhibitory concentration (IC50) under setting [1] turned out to be 45 µM.

Consider `OC(CN(Cc1cccc(Oc2ccc(Cl)cc2)c1)c1cccc(F)c1)C(F)(F)F` (stereo not drawn) [Example 676], for which the IC50 under setting [1] was greater than 100 µM.

Regarding `OC(CN(Cc1cccc(C(F)(F)F)c1)c1cccc(C(F)(F)F)c1)C(F)(F)F` (stereo not drawn) [Example 47], inhibition under setting [2] was half-maximal at 10 µM (IC50).

For the compound `OC(CN(Cc1cccc(OC(F)(F)C(F)F)c1)c1cccc(SCc2cc(Cl)cs2)c1)C(F)(F)F` (stereo not drawn) [Example 480], the half-maximal inhibitory concentration (IC50) under setting [1] was determined as 1.9 µM.
